Test results published in paper PMC6254154 (Molecules, 2009).

Tests used:
PLA2 of NK venom = test: Inhibition of PLA2 activity of NK venom (indirect hemolytic assay on agarose-erythrocyte-egg yolk gel plates); assay type: biochemical, Naja naja kaouthia; conditions: NK venom 3.4 µg (one MIHD); pre-incubated 1 h at 37 °C; mean ± S.E.M. (n = 2)
Procedure: (§1) PLA2 activity in CR and NK venoms was measured using an indirect hemolytic assay on agarose-erythrocyte-egg yolk gel plates to define the minimum indirect hemolytic dose (MIHD), the dose of venom that induced a hemolysis halo of 20 mm diameter after incubation for 20 h at 37 °C. The inhibition of PLA2 activity by MSKE and its isolated phenolic principles was determined against one MIHD of CR and NK venoms. Test solutions and the venoms (0.05 mL each) were pre-incubated for 1 h at 37 °C. After centrifugation at 10,000 rpm for 10 min, the supernatant (20 µL) was tested for PLA2 activity. The anti-PLA2 potential of the extract and its phenolic principles was presented as percent inhibition of the enzymatic activity versus dose, in which 100% inhibition should produce no clear zone. ED50, the effective dose that PLA2 activity of the venoms was reduced by 50%, was calculated.

PLA2 of CR venom = test: Inhibition of PLA2 activity of CR venom (indirect hemolytic assay on agarose-erythrocyte-egg yolk gel plates); assay type: biochemical, Calloselasma rhodostoma; conditions: CR venom 17.1 µg (one MIHD); pre-incubated 1 h at 37 °C; mean ± S.E.M. (n = 2)
Procedure: as §1

LAAO of NK venom = test: Inhibition of LAAO activity of NK venom (enzyme-coupled assay); assay type: biochemical, Naja naja kaouthia; conditions: NK venom 50 µg; pre-incubated 1 h at 37 °C; mean ± S.E.M. (n = 2)
Procedure: (§2) LAAO activity of CR and NK venoms was determined by using an enzyme-coupled assay. The assay mixture contained 0.025 mL 0.014% peroxidase and 0.2 M triethanolamine buffer (1 mL, pH 7.6) that contained 0.1% L-leucine and 0.0065% o-dianisidine. After incubation at 25 °C for 3 min, 0.1 mL CR or NK venom in PBS (1 mg/mL) was added, and an increase in absorbance at 436 nm (Shimadzu UV-VIS spectrophotometer UV-160A) was measured against blank. Enzymatic activity was calculated from the linear portion of the time–absorbance plot, where one unit of enzymatic activity was defined as the amount of enzyme that caused an increase of 0.001 absorbance units per minute. The percent inhibition of LAAO activity by MSKE and its isolated phenolic principles was evaluated by pre-incubating CR or NK venom (0.1 mL, 1 mg/mL) with test sample in sterile water for injection (SWI) (0.1 mL) for 1 h at 37 °C. After pre-incubation, the mixture was centrifuged at 10,000 rpm for 5 min, and supernatant (0.1 mL) was evaluated for LAAO activity. Venoms, test sample, and solvents alone were used as controls. The anti-LAAO potential of the extract and its phenolic principles was presented as percent inhibition of the enzymatic activity versus dose. ED50, the effective dose that LAAO activity of the venoms was reduced by 50%, was calculated.

LAAO of CR venom = biological target: T1, LAAO of CR venom (Calloselasma rhodostoma, UniProt P81382); test: Inhibition of LAAO activity of CR venom (enzyme-coupled assay); assay type: biochemical; conditions: CR venom 50 µg; pre-incubated 1 h at 37 °C; mean ± S.E.M. (n = 2)
T1 construct: from tissue; host or cells: crude snake venom (CR)
T1 sequence (P81382 19-516): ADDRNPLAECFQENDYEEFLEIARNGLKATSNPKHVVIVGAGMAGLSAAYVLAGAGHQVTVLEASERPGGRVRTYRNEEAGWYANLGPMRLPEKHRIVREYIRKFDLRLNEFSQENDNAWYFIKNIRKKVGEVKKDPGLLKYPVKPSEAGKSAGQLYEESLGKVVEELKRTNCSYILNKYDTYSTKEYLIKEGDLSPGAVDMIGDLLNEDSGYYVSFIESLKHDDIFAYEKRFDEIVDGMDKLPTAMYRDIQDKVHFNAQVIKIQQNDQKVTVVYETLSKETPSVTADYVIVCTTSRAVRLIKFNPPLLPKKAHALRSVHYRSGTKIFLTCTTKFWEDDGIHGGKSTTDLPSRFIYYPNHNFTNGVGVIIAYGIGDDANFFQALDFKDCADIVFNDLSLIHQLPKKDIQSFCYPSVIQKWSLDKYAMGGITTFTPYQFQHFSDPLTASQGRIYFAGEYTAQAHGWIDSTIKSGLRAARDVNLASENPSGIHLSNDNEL
Procedure: as §2

[1] = test system: hyaluronidase of NK venom; test: Inhibition of hyaluronidase activity of NK venom (turbidimetric); assay type: biochemical, Naja naja kaouthia; conditions: NK venom 250 µg; pre-incubated 30 min at 37 °C; mean ± S.E.M. (n = 2)
Procedure: (§3) Hyaluronidase activity was determined according to the methods of Ferrante and Yingprasertchai et al. with slight modification. CR or NK venom (25-1,000 µg) in PBS (pH 7.4) was incubated with hyaluronic acid (50 μg) in 0.2 M sodium acetate buffer (1 mL, pH 5) that contained 0.15 M NaCl for 25 min at 37 °C. The reaction was stopped by adding 2.5% cetyltrimethylammonium bromide in 2% NaOH (2 mL). The optical density at 400 nm of each sample was read after 30 min with a Shimadzu UV-VIS spectrophotometer UV-160A against blank. Turbidity-reducing activity was expressed as the percentage of the remaining hyaluronic acid, taking the absorbance of a tube to which no enzyme was added as 100%. The venom concentration that produced a reduction in turbidity of ~50% was used in inhibition experiments. […] Blanks containing only the buffer and test sample were run in parallel. The anti-hyaluronidase potential of the extract and its phenolic principles was presented as percent inhibition of the enzymatic activity versus dose. ED50, the effective dose that hyaluronidase activity of the venoms was reduced by 50%, was calculated.

[2] = test system: hyaluronidase of CR venom; test: Inhibition of hyaluronidase activity of CR venom (turbidimetric); assay type: biochemical, Calloselasma rhodostoma; conditions: CR venom 250 µg; pre-incubated 30 min at 37 °C; mean ± S.E.M. (n = 2)
Procedure: as §3

| SMILES | PLA2 (ED50, µg) NK venom (PLA2 of NK venom) | PLA2 (ED50, µg) CR venom (PLA2 of CR venom) | LAAO (ED50, µg) NK venom (LAAO of NK venom) | LAAO (ED50, µg) CR venom (LAAO of CR venom) | Hyaluronidase (ED50, µg) NK venom [1] | Hyaluronidase (ED50, µg) CR venom [2] |
| --- | --- | --- | --- | --- | --- | --- |
| O=C(O)c1cc(O)c(O)c(O)c1 [GA, gallic acid] | 123.5 ± 2.5 µg | 66.0 ± 2.5 µg | 4.5 ± 2.8 µg | 1.7 ± 3.4 µg | 14.8 ± 1.4 µg | 16.0 ± 2.5 µg |
| COC(=O)c1cc(O)c(O)c(O)c1 [MG, methyl gallate] | 108.7 ± 2.0 µg | 42.9 ± 2.3 µg | 4.4 ± 2.0 µg | 2.3 ± 2.4 µg | 8.6 ± 2.1 µg | 5.9 ± 2.4 µg |
| O=C(OC[C@H]1O[C@@H](OC(=O)c2cc(O)c(O)c(O)c2)[C@H](OC(=O)c2cc(O)c(O)c(O)c2)[C@@H](OC(=O)c2cc(O)c(O)c(O)c2)[C@@H]1OC(=O)c1cc(O)c(O)c(O)c1)c1cc(O)c(O)c(O)c1 [PGG, 1,2,3,4,6-penta-O-galloyl-β-D-glucopyranose] | 30.2 ± 2.4 µg | 25.6 ± 1.3 µg | 2.2 ± 2.0 µg | 0.9 ± 2.4 µg | 2.6 ± 1.7 µg | 3.4 ± 2.4 µg |
